{"source": "paper PMC4310350", "about": "(Drug Design, Development and Therapy, 2015)", "key": {"OAT3": {"molecular_target": "T1, OAT3 (Homo sapiens, UniProt Q8TCC7)", "T1 sequence (Q8TCC7 1-542)": "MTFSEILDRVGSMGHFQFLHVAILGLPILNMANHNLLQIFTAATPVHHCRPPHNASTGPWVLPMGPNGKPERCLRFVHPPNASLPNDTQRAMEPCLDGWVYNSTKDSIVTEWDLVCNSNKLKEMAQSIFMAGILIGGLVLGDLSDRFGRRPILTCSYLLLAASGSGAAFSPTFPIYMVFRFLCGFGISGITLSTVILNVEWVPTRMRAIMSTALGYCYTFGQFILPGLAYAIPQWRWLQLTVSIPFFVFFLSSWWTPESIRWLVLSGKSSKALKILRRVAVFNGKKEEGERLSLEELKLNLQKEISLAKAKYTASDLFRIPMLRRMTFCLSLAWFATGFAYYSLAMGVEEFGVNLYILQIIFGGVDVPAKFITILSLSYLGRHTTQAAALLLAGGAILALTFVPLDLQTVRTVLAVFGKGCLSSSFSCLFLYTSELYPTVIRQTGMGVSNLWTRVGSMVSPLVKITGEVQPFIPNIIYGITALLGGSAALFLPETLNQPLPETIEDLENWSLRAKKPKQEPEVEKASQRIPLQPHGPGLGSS", "experiment": "Uptake in HEK293 cells overexpressing OAT3", "type": "in vitro ADME"}, "OATP1B1": {"molecular_target": "T2, OATP1B1 (Homo sapiens, UniProt Q9Y6L6)", "T2 sequence (Q9Y6L6 1-691)": "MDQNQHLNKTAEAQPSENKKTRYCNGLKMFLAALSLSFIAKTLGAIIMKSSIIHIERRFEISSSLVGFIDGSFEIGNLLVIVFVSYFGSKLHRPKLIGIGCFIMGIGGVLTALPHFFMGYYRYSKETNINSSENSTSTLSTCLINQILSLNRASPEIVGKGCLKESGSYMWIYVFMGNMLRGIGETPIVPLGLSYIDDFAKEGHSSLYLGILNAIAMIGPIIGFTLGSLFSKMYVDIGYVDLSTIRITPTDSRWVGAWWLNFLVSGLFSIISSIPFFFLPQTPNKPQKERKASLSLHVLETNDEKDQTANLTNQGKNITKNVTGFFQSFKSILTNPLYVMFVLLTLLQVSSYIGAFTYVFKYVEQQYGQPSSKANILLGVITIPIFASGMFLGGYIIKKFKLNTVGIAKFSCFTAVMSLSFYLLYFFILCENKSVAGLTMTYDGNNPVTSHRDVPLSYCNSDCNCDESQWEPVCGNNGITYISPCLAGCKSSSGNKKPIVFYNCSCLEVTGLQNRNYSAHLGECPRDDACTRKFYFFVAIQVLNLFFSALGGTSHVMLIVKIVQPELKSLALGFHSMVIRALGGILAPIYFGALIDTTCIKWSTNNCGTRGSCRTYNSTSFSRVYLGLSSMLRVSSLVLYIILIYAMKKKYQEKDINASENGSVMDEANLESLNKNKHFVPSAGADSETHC", "experiment": "Uptake in HEK293 cells overexpressing OATP1B1", "type": "in vitro ADME", "conditions": "OATP1B1-mediated uptake"}, "OCT2 [1]": {"molecular_target": "T3, OCT2 (Homo sapiens, UniProt O15244)", "T3 sequence (O15244 1-555)": "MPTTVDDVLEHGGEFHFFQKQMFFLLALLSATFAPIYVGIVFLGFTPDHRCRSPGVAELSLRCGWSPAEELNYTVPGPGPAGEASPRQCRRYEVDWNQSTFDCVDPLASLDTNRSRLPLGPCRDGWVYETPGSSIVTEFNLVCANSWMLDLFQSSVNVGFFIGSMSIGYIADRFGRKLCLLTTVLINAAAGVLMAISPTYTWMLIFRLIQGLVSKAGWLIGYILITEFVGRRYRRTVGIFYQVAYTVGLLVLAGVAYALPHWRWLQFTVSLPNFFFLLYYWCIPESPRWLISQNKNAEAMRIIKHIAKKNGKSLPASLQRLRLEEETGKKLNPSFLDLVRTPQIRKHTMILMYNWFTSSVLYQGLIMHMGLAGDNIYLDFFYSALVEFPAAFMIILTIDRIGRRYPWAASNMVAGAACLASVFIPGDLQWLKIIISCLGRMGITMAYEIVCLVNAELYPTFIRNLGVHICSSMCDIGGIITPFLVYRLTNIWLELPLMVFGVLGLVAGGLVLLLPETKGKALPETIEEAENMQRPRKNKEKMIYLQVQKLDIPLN", "experiment": "Uptake in HEK293 cells overexpressing OCT2", "type": "in vitro ADME", "conditions": "OCT2, influx"}, "P-gp [2]": {"molecular_target": "T4, P-gp (Homo sapiens, UniProt P08183)", "T4 sequence (P08183 whole entry)": "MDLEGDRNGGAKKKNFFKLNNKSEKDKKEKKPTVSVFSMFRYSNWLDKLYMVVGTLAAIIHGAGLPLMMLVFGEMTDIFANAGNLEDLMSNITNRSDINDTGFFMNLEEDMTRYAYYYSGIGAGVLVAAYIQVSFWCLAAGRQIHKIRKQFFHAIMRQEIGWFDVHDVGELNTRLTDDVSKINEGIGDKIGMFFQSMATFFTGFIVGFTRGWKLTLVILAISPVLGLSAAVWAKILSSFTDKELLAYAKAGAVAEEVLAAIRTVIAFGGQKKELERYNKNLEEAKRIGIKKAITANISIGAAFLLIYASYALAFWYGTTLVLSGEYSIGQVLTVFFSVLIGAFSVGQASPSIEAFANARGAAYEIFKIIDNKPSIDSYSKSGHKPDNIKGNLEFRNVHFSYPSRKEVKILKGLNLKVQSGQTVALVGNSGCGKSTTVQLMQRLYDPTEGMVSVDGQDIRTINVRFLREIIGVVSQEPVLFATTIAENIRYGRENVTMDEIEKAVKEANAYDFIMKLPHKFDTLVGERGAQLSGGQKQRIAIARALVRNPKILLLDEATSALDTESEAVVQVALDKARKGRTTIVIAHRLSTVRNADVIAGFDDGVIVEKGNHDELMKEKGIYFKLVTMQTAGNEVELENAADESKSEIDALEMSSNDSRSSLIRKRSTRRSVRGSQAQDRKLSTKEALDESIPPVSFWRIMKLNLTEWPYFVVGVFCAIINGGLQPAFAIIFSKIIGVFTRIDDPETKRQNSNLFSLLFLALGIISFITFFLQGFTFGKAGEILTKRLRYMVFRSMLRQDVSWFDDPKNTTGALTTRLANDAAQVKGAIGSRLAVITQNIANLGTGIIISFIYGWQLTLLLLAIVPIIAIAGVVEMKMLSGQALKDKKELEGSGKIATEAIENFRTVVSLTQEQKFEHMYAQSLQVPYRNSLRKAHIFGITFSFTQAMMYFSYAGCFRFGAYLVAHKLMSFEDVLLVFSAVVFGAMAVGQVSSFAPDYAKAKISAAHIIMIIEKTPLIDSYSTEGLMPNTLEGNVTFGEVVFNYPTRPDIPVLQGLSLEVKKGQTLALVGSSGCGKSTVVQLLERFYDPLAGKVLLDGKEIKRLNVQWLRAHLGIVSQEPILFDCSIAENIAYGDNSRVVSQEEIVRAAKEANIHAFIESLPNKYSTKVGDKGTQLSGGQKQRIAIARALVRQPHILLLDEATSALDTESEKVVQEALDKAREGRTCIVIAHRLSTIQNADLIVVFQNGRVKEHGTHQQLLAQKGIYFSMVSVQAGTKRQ", "experiment": "A-to-B and B-to-A transport in LLC-PK1 cells overexpressing P-gp", "type": "in vitro ADME", "conditions": "P-gp (MDR1), efflux"}, "OCT1": {"molecular_target": "T5, OCT1 (Homo sapiens, UniProt O15245)", "T5 sequence (O15245 1-554)": "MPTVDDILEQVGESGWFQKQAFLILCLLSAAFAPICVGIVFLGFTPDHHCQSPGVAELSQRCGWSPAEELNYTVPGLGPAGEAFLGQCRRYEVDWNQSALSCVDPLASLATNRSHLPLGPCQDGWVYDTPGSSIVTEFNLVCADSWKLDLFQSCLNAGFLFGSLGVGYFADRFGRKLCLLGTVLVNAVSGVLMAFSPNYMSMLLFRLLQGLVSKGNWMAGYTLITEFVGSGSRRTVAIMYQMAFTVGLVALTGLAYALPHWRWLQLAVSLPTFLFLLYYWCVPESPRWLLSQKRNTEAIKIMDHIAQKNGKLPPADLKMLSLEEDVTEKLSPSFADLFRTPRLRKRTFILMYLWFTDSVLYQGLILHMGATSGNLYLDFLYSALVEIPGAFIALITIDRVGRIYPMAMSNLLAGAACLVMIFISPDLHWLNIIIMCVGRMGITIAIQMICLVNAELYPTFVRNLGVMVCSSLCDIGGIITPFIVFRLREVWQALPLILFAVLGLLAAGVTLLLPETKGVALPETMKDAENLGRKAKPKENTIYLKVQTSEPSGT", "experiment": "Inhibitory effect of catalposide on OCT1 transport activity", "type": "in vitro ADME", "conditions": "probe 0.1 μM [3H]MPP+, catalposide 0–100 μM"}, "OCT2 [3]": {"molecular_target": "T3, OCT2", "experiment": "Inhibitory effect of catalposide on OCT2 transport activity", "type": "in vitro ADME", "conditions": "probe 0.1 μM [3H]MPP+, catalposide 0–100 μM"}, "P-gp [4]": {"molecular_target": "T4, P-gp", "experiment": "Inhibitory effect of catalposide on P-gp transport activity", "type": "in vitro ADME", "conditions": "probe 0.1 μM [3H]digoxin, catalposide 1–100 μM"}, "[5]": {"conditions": "3-hour incubation in rat plasma; cited from earlier work"}, "[6]": {"conditions": "rat liver microsomes in the presence of NADPH; cited from earlier work"}, "[7]": {"tested_on": "suppression of cytokines, antioxidative effect, and PPAR-α activation", "conditions": "in vitro cell system; cited from earlier work"}, "[8]": {"tested_on": "colitis induced by trinitrobenzene sulfonic acid", "conditions": "mice, cited from earlier work"}}, "note": "“Also recorded” adds a separate entry of the source. Read-outs that look alike come from different tables or passages of the source.", "data": [{"smiles": "O=C(O[C@H]1[C@@H]2C=CO[C@@H](O[C@@H]3O[C@H](CO)[C@@H](O)[C@H](O)[C@H]3O)[C@@H]2[C@@]2(CO)O[C@@H]12)c1ccc(O)cc1", "note": "[catalposide]", "values": [{"measurement": "Clint for OAT3 relative to OATP1B1", "setting": "OAT3; OAT3 vs OATP1B1", "result": 31.8, "unit": "fold"}, {"measurement": "Clint for OAT3 relative to OATP1B3", "setting": "OAT3; OAT3 vs OATP1B3", "result": 32.7, "unit": "fold"}, {"measurement": "Hill coefficient n", "setting": "OATP1B1", "result": "~1"}, {"measurement": "Substrate", "setting": "OCT2 [1]", "result": "not involved"}, {"measurement": "Substrate", "setting": "P-gp [2]", "result": "not involved; also recorded: not a substrate"}, {"measurement": "Inhibitor", "setting": "OCT1", "result": "did not significantly inhibit"}, {"measurement": "Inhibitor", "setting": "OCT2 [3]", "result": "did not significantly inhibit"}, {"measurement": "Inhibitor", "setting": "P-gp [4]", "result": "did not significantly inhibit"}, {"measurement": "Stability", "setting": "[5]", "result": "remained stable"}, {"measurement": "Stability", "setting": "[6]", "result": "remained stable"}, {"measurement": "Effective concentration", "setting": "[7]", "result": "0.2 to 4", "unit": "µM"}, {"measurement": "Histologic toxicity", "setting": "[8]; 1–2.5 mg/kg", "result": "without histologic toxicity"}, {"measurement": "Severity of colitis", "setting": "[8]; dose 0.5 mg/kg", "result": "reduced the severity of colitis"}]}]}
